Experimental data as given in patent US11351121B2, “Calcium alginate dosage formulations, and methods of making and using thereof” (Temple University—Of The Commonwealth System of Higher …, priority 2015, dated 2022).
“Also recorded” adds a separate entry of the source. Blank lines part the entries; values can stand above or below the molecule they belong to.

Columns and labels:
[1] = Drug loss during the cross-linking process; assay type: physicochemical; details: previous formulations (with glycerol, lactose, sucrose)
[2] = Dissolution of formulations A-K: acid stage (0.1 N HCl two hours) then buffer stage; assay type: physicochemical; details: for T80: buffer stage pH 7.2 phosphate buffer after 0.1 N HCl two hours; for % released in acid stage: after two hours
Procedure: (§1) A dissolution study was performed on each of the different tablets to determine their dissolution profiles. Dissolution USP apparatus II (Paddle) was initially used. […] Rotation speed was 50 RPM and the temperature was 37.0±0.5° C. The dissolution media used was 900 ml of 0.1 N hydrochloric acid in each vessel. After 2 hours the dissolution media was changed to 900 ml of standard 50 mM pH 7.2 potassium phosphate buffer. A 1 ml sample was withdrawn at each time. The samples were analyzed by HPLC.
HPLC analysis: an Agilent 1100 series HPLC with auto-sampler and dual wavelength detector was used. The mobile phase was acetonitrile to water with 0.5% formic acid (60:50 v/v).
Methods: different formulations were developed. […] The ingredients of all the formulations were mixed with deionized water at room temperature. The basket method described in chapter two was used to fabricate the tablets. 2 or 1.5 ml of the gel was dispensed into the basket as indicated.
Release profiles of the tablets were investigated in different buffer capacities and pH values. The tablets were pretreated in the acid stage for two hours before transferring them to the buffer stage.

[3] = Dissolution of compressed caffeine tablets (Carver press, Minipress IIBD); assay type: physicochemical; details: compressed tablet with alginate film coating
Procedure: Coated Tablet Results: different weight gains were tested to try to achieve the delayed release profile.
Because it was somewhat more difficult to produce tablets with similar hardness on the Minipress using the formulation used on the Carver press, lactose was added to increase the hardness of the tablets.

[4] = cited from earlier work
[5] = Dissolution of calcium alginate tablets in different dissolution media (deionized water, EDTA, EDTA+CaCl2); assay type: physicochemical
Procedure: In order to investigate the role of solutes and pH of the media on the erosion process, calcium alginate tablets made with same formulation were treated in different dissolution media.
The dissolution of the drug from the Ca Alginate dosage form was dependent on two things. First the pH of the media had to be neutral or high. Second the media had to have the ability to complex with the Calcium in solution. […] The drug release at pH 7.2 in media with either EDTA or phosphate buffer was complete in 6 hours. Drug release in 0.1 N HCl was less than 5%.

[6] = Dissolution study of calcium alginate tablets, USP apparatus I (basket), 0.1 N HCl 2 hours then pH 7.2 phosphate buffer; assay type: physicochemical; details: after two hours
Procedure: Analysis: an Agilent 1100 series HPLC with autosampler and dual wavelength detector was used. The mobile phase was acetonitrile to water with 0.5% formic acid (60:50 v/v). The flow rate was 1.2 mL/min and the sample injection volume was 50 μL and the wavelength of detection was 214 nm. The column used was a 150 by 4.6 mm Eclipse Plus C18 column (Agilent).
as §1

[7] = poly(ethyloxaline)/PMAA matrix disks, 0.9% saline; cited from earlier work

Molecule: O=C(O)c1ccccc1 [Benzoic acid, benzoic acid]
- benzoic acid lost during the cross-linking process [1]: more than 30%
- drug load released during residence time in the acid stage ([2]; benzoic acid, previous formulations (with glycerol, lactose, sucrose)): more than 30%
- T80 ([2]; formulation B): 6.76 h
- released in the acid stage after two hours ([2]; formulation C): about 18%
- T80 ([2]; formulation C): 6.4 h
- % released in acid stage ([2]; formulation K): 7%
- erosion of tablets at pH 3 and pH 4 ([2]; formulation K, buffer stage): no erosion was detected
- erosion of tablets at pH 5 ([2]; formulation K, buffer stage): started to erode but at a slower rate compared to pH 7.2
- effect of higher buffer capacity on release rate ([2]; formulation K, 100 mM phosphate buffer, pH 7.2): minimum effect on the release rate
- effect of lower buffer capacity on drug release ([2]; formulation K, 25 and 10 mM phosphate buffer, pH 7.2): a slower drug release

Molecule: Cn1c(=O)c2c(ncn2C)n(C)c1=O [Caffeine, caffeine]
- % released in acid stage ([2]; formulation K): 18%
- caffeine release by 12 hours [3]: 80%
- time for which caffeine is retained [3]: up to 8 hours

- % released in acid stage ([2]; formulation K): 17%
Molecule: COc1ccccc1OCC(O)CO (stereo not drawn) [Guaifenesin, guaifenesin]
- solubility [4]: highly soluble

- time to complete drug release ([5]; pH 7.2 media with either EDTA or phosphate buffer): 6 h
- drug release in 10 mM EDTA dissolution medium ([5]; tablets with 1 g stearic acid, 1 molar CaCl2 3 minutes, 10 mM EDTA): Complete drug release
- erosion or release in EDTA solution treated with calcium chloride ([5]; tablets with 1 g stearic acid, 1 molar CaCl2 3 minutes, 10 mM EDTA+30 mM CaCl2): No erosion or release
- T80 ([2]; formulation B): 4.8 h
- T80 ([2]; formulation C): 6.71 h
- % released in acid stage ([2]; formulation K): <1%
- drug released in 0.1 N HCl media [6]: less than 5%
Molecule: CC(C)Cc1ccc(C(C)C(=O)O)cc1 (stereo not drawn) [Ibuprofen, ibuprofen]
- release of the drug in pH 7.2 deionized water ([5]; calcium alginate tablets, pH 7.2 deionized water): no significant release; also recorded: no drug release

Molecule: insulin: regular zinc insulin in a poly(ethyloxaline)/PMAA matrix (Kwon et al.)
- insulin released during the 3 days equilibrium period in saline [7]: less than 4 % of the initial insulin load
